Counter-ions that a name gives are not always drawn. Like-named read-outs stand apart in the source and are kept apart here.

For orientation: inhibition means the relative decrease from the control value, in per cent.

The test system of the assay is C. elegans. Nature of the assay: microbe, parasite or virus in culture. Conditions: Caenorhabditis elegans.
Setting [1] is: 0 h, read-out: Percentage of motility inhibition 0 h, Table S2, C. elegans SS assay, 110 μM, 0 h, averages of 4 data points.
Setting [2] is: 24 h, read-out: Percentage of motility inhibition 24 h, Table S2, C. elegans SS assay, 110 μM, 24 h, averages of 4 data points.
Where [3] appears, read: 0 h, read-out: Percentage of motility inhibition 0 h.
Setting [4] is: 24 h, read-out: Percentage of motility inhibition 24 h.

As for `CCN(CCO)CCCC(C)Nc1ccnc2cc(Cl)ccc12` (centres unmarked) [Hydroxychloroquine sulfate], the inhibition at 110 µM turned out to be 19% under setting [1] and 9% under setting [2].

Consider `CN1C(=O)C(O)CC1c1cccnc1` (centres unmarked) [Hydroxycotinine], for which the inhibition at 110 µM was determined as 13% under setting [1] and 0% under setting [2]. In the case of `C[C@H](CCC(=O)O)[C@H]1CC[C@H]2[C@@H]3C[C@H](O)[C@@H]4C[C@H](O)CC[C@]4(C)[C@H]3CC[C@]12C` [Hyodeoxycholic acid], the inhibition at 110 µM is, setting by setting: under setting [1], 2%; under setting [2], 18%. For `COC[C@@]12CC[C@H](OC)[C@]34C(C([C@H](OC)[C@H]13)[C@]1(OC(C)=O)[C@H]3[C@@H](OC(=O)c5ccccc5)[C@](O)(C[C@H]34)[C@@H](OC)[C@@H]1O)N(C)C2` [Hypaconitine], the inhibition at 110 µM runs as follows: under setting [1], 0%; under setting [2], 6%.

On to `C[N+](C)(C)[C@@H](Cc1c[nH]c2ccccc12)C(=O)[O-]` [Hypaphorine], for which the inhibition at 110 µM turned out to be 0% under setting [1] and 0% under setting [2]. `O=c1c(O[C@@H]2O[C@H](CO)[C@H](O)[C@H](O)[C@H]2O)c(-c2ccc(O)c(O)c2)oc2cc(O)cc(O)c12` [Hyperoside]: the inhibition at 110 µM worked out at 14% under setting [1] and 11% under setting [2].

As to `COc1ccc(-c2oc3c(CC=C(C)C)c(O[C@@H]4O[C@H](CO)[C@@H](O)[C@H](O)[C@H]4O)cc(O)c3c(=O)c2O[C@@H]2O[C@@H](C)[C@H](O)[C@@H](O)[C@H]2O)cc1` [Icariin], the inhibition at 110 µM is, setting by setting: under setting [3], 30%; under setting [4], 12%. On to `COc1ccc(-c2oc3c(CC=C(C)C)c(O)cc(O)c3c(=O)c2O)cc1` [Icaritin], for which the inhibition at 110 µM worked out at 0% under setting [1] and 2% under setting [2].

Regarding `O=c1[nH]c(=O)n([C@H]2C[C@H](O)[C@@H](CO)O2)cc1I` [Idoxuridine], the inhibition at 110 µM worked out at 38% under setting [1] and 11% under setting [2]. Regarding `C=CCOC(Cn1ccnc1)c1ccc(Cl)cc1Cl` (centres unmarked) [Imazalil], the inhibition at 110 µM by setting is: under setting [1], 35%; under setting [2], 36%. Regarding `O=C(NCNC(=O)NC1C(=O)NC(=O)N1CO)NC1C(=O)NC(=O)N1CO` (centres unmarked) [Imidazolidinyl urea], the inhibition at 110 µM came to 28% under setting [1] and 10% under setting [2].

Turning to `O=C(O)CNCC(=O)O` [Iminodiacetic acid], the inhibition at 110 µM is, setting by setting: under setting [1], 15%; under setting [2], 0%. For `C/C1=C\C[C@]2(C(C)C)CC[C@@](C)(O2)[C@@H](O)CC/C(C)=C/CC1` [Incensole], in that order: 2% and 29%.

Turning to `O=C1Nc2ccccc2/C1=C1/Nc2ccccc2C1=O` [Indirubin], under setting [2], the inhibition at 110 µM worked out at 6%. In the case of `c1ccc2[nH]ccc2c1` [Indole], the inhibition at 110 µM is, setting by setting: under setting [3], 13%; under setting [4], 9%. For `NC(=O)Cc1c[nH]c2ccccc12` [Indole‐3‐acetamide], the inhibition at 110 µM runs as follows: under setting [1], 0%; under setting [2], 0%. On to `O=C(O)CCCc1c[nH]c2ccccc12` [Indole‐3‐butyric acid], for which the inhibition at 110 µM stood at 2% under setting [1] and 0% under setting [2].

As to `OCc1c[nH]c2ccccc12` [Indole‐3‐carbinol], the inhibition at 110 µM worked out at 0% under setting [1] and 18% under setting [2]. The corresponding values for `O=C(O)c1c[nH]c2ccccc12` [Indole‐3‐carboxylic acid] are 0% and 0%. For `C/C=C(/C)C(=O)O[C@H]1C(C)=C[C@]23C(=O)[C@@H](C=C(CO)[C@@H](O)[C@]12O)[C@H]1[C@@H](C[C@H]3C)C1(C)C` [Ingenol Mebutate], in that order: 1% and 0%. The corresponding values for `O=c1[nH]cnc2c1ncn2[C@@H]1O[C@H](CO)[C@@H](O)[C@H]1O` [Inosine] are 34% and 10%. For `COc1cc(-c2coc3cc(O)c(OC)c(O)c3c2=O)cc(O)c1OC` [Irigenin], the inhibition at 110 µM amounted to 14% under setting [1] and 3% under setting [2]. The corresponding values for `COc1cc(-c2coc3cc4c(c(OC)c3c2=O)OCO4)cc(OC)c1OC` [Irisflorentin] are 26% and 34%.

In the case of `COc1ccc(-c2coc3cc(O)c(OC)c(O)c3c2=O)cc1` [Irisolidone], the inhibition at 110 µM under setting [1] amounted to 0% and the inhibition at 110 µM under setting [2] amounted to 0%.

For the compound `O=C1Nc2ccccc2C1=O` [Isatin], the inhibition at 110 µM reads like this: under setting [1], 25%; under setting [2], 3%.

Consider `C[C@@H](c1nc(-c2ccc(C#N)cc2)cs1)[C@](O)(Cn1cncn1)c1cc(F)ccc1F` [Isavuconazole], for which the inhibition at 110 µM stood at 25% under setting [1] and 0% under setting [2]. Consider `C=C1C(=O)O[C@@H]2C[C@@]3(C)CCCC(=C)[C@@H]3C[C@H]12` [Isoalantolactone], for which the inhibition at 110 µM reads like this: under setting [1], 2%; under setting [2], 12%. For `CC(C)=CCc1c(O)ccc(C(=O)/C=C/c2ccc(O)cc2)c1O` [Isobavachalcone], in that order: 6% and 15%.

For the compound `C=C[C@H]1CN2CC[C@@]3(C(=O)Nc4ccccc43)[C@@H]2C[C@@H]1/C(=C\OC)C(=O)OC` [Isocorynoxeine], the inhibition at 110 µM runs as follows: under setting [1], 0%; under setting [2], 0%. Turning to `C=C1C[C@]2(O)O[C@@]3(CC2=C(C)C)[C@@H](C)CC[C@@H]13` [Isocurcumenol], the inhibition at 110 µM reads like this: under setting [1], 5%; under setting [2], 24%.

For `C/C=C(\C)C(=O)O[C@H]1[C@H](O)[C@]2(COC(C)=O)[C@H](O)C[C@]3(C)C(=CC[C@@H]4[C@@]5(C)CC[C@H](O[C@@H]6O[C@H](C(=O)O)[C@@H](O[C@@H]7O[C@H](CO)[C@@H](O)[C@H](O)[C@H]7O)[C@H](O)[C@H]6O[C@@H]6O[C@H](CO)[C@@H](O)[C@H](O)[C@H]6O)[C@](C)(CO)[C@@H]5CC[C@]43C)[C@@H]2CC1(C)C` [Isoescin IA], the inhibition at 110 µM came to 8% under setting [1] and 1% under setting [2]. The corresponding values for `C/C=C(/C)C(=O)O[C@H]1[C@H](O)[C@]2(COC(C)=O)[C@H](O)C[C@]3(C)C(=CC[C@@H]4[C@@]5(C)CC[C@H](O[C@@H]6O[C@H](C(=O)O)[C@@H](O[C@@H]7O[C@H](CO)[C@@H](O)[C@H](O)[C@H]7O)[C@H](O)[C@H]6O[C@@H]6O[C@H](CO)[C@@H](O)[C@H](O)[C@H]6O)[C@](C)(CO)[C@@H]5CC[C@]43C)[C@@H]2CC1(C)C` [Isoescin IB] are 9% and 0%.

For the compound `COc1ccc(-c2cc(=O)c3c(O)cc(O)c(-c4cc(-c5cc(=O)c6c(O)cc(O)cc6o5)ccc4OC)c3o2)cc1` [Isoginkgetin], the inhibition at 110 µM by setting is: under setting [1], 17%; under setting [2], 19%. For `COc1ccc(C[C@@H]2c3cc(Oc4cc(C[C@@H]5c6cc(O)c(OC)cc6CCN5C)ccc4O)c(OC)cc3CCN2C)cc1` [Isoliensinine], the inhibition at 110 µM reads like this: under setting [3], 3%; under setting [4], 17%. As for `C=C[C@@]1(C)Cc2occ(C)c2[C@@H]2OC(=O)C(=C)[C@@H]21` [Isolinderalactone], the inhibition at 110 µM is, setting by setting: under setting [1], 13%; under setting [2], 9%. For `O=C(/C=C/c1ccc(O)cc1)c1ccc(O)cc1O` [Isoliquiritigenin], in that order: 16% and 4%. The corresponding values for `O=C(/C=C/c1ccc(O[C@@H]2O[C@H](CO)[C@@H](O)[C@H](O)[C@H]2O)cc1)c1ccc(O)cc1O` [Isoliquiritin] are 24% and 2%. For `NNC(=O)c1ccncc1` [Isoniazid], the inhibition at 110 µM came out at 26% under setting [1] and 27% under setting [2].

In the case of `O=C(O)c1ccncc1` [Isonicotinic acid], the inhibition at 110 µM runs as follows: under setting [1], 0%; under setting [2], 0%. On to `O=c1cc(-c2ccc(O)c(O)c2)oc2cc(O)c([C@@H]3O[C@H](CO)[C@@H](O)[C@H](O)[C@H]3O)c(O)c12` [Isoorientin], for which the inhibition at 110 µM reads like this: under setting [1], 6%; under setting [2], 22%.

For the compound `C=C[C@@]1(C)CC[C@H]2C(=CC[C@@H]3[C@]2(C)CCC[C@@]3(C)C(=O)O)C1` [Isopimaric acid], the inhibition at 110 µM under setting [3] came to 0% and the inhibition at 110 µM under setting [4] was found to be 14%. With `O=c1c(O[C@@H]2O[C@H](CO)[C@@H](O)[C@H](O)[C@H]2O)c(-c2ccc(O)c(O)c2)oc2cc(O)cc(O)c12` [Isoquercitrin], the inhibition at 110 µM runs as follows: under setting [1], 31%; under setting [2], 2%. The corresponding values for `COc1cc(-c2oc3cc(O)cc(O)c3c(=O)c2O)ccc1O` [Isorhamnetin] are 22% and 2%.

Turning to `C[C@@H]1O[C@@H](OC[C@H]2O[C@@H](Oc3cc(O)c4c(=O)cc(-c5ccc(O)cc5)oc4c3)[C@H](O)[C@@H](O)[C@@H]2O)[C@H](O)[C@H](O)[C@H]1O` [Isorhoifolin], the inhibition at 110 µM is, setting by setting: under setting [1], 0%; under setting [2], 20%. Consider `CC[C@H]1CN2CC[C@@]3(C(=O)Nc4ccccc43)[C@@H]2C[C@@H]1/C(=C\OC)C(=O)OC` [Isorhynchophylline], for which the inhibition at 110 µM runs as follows: under setting [1], 0%; under setting [2], 0%. As for `C[C@@]12CC[C@@H]3[C@@](CC[C@H]4[C@@]3(C)CCC[C@@]4(C)C(=O)O)(CC1=O)C2` [Isosteviol], the inhibition at 110 µM is, setting by setting: under setting [1], 0%; under setting [2], 2%.

As to `O=c1cc(-c2ccc(O)cc2)oc2cc(O)c([C@@H]3O[C@H](CO)[C@@H](O)[C@H](O)[C@H]3O)c(O)c12` [Isovitexin], the inhibition at 110 µM under setting [1] is 11% and the inhibition at 110 µM under setting [2] turned out to be 6%.

As for `CCC(C)n1ncn(-c2ccc(N3CCN(c4ccc(OCC5COC(Cn6cncn6)(c6ccc(Cl)cc6Cl)O5)cc4)CC3)cc2)c1=O` (centres unmarked) [Itraconazole], the inhibition at 110 µM under setting [1] was determined as 18% and the inhibition at 110 µM under setting [2] is 22%.
